For assay [1], the system named is Oxytricha Nova quadruplex (DNA, G4) GGGGTTTTGGGG
As to the kind of experiment: ITC. The conditions noted are these: Na+ 100 mM; 10 mM cacodylate, 0.5 mM EDTA, pH 6.8.

For assay [2], the system named is human telomeric DNA (22mer) (DNA, G4) AGGGTTAGGGTTAGGGTTAGGG
Kind of assay: ITC. The following applies: Na+ 100 mM; 10 mM cacodylate, 0.5 mM EDTA, pH 6.8; one-site model.

The results in this text go back to PMC3673541 (2011).

Molecules are shown by their SMILES.

Consider `NC[C@@H]1O[C@H](O[C@H]2[C@@H](O)[C@H](O[C@@H]3[C@@H](O)[C@H](N)C[C@H](N)[C@H]3O[C@H]3O[C@H](CN)[C@@H](O)[C@H](O)[C@H]3N)O[C@@H]2CO)[C@H](N)[C@@H](O)[C@@H]1O`, for which the Ka entry in assay [1] is reported as “(1.8±0.3)×10^5 M^−1”; in assay [2] it was “(2.5±0.2)×10^4 M^−1”.
